Results as given in patent US6235786A, “Reverse hydroxamate inhibitors of matrix metalloproteinases” (Abbott Laboratories, priority 2000, dated 2001).

Target: T1, gelatinase-A (MMP-2) (Homo sapiens, UniProt P08253)
T1 construct: Recombinant active gelatinase-A (MMP-2) is purchased from Oncogene Research; purchased Oncogene Research
T1 sequence (P08253 110-660): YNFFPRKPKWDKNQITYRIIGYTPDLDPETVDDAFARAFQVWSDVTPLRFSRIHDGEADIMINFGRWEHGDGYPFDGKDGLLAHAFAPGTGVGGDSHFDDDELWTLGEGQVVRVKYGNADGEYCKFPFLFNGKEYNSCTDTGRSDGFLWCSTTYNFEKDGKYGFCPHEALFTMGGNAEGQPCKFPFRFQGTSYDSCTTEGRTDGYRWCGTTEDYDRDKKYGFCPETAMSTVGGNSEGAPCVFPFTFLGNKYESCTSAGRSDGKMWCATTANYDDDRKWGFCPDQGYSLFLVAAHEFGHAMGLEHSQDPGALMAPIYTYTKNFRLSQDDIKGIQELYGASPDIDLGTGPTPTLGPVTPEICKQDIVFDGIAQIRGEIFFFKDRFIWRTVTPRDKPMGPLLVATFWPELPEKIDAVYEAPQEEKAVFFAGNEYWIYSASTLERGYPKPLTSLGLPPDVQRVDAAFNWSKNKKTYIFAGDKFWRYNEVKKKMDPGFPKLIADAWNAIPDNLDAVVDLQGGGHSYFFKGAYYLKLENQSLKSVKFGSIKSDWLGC
Test: Inhibition of Gelatinase A (MMP-2), cleavage of a fluorescent substrate
Assay type: biochemical
Conditions: Table 2; recombinant active gelatinase-A (MMP-2), pH 7.4, 40 min assay at ambient temperature
Method: The efficacy of the compounds of this invention as matrix metalloproteinase inhibitors was also determined by measuring inhibition as outlined below for Gelatinase A, a member of this family of enzymes. Recombinant active gelatinase-A (MMP-2) is purchased from Oncogene Research. The enzyme is assayed by its cleavage of a fluorescent […] 150 uL volume in a microfluor plate as described in Science 1990, 247, 954-958. Upon cleavage of the substrate, the fluorescence of the EDANS group is increased 30-fold, and this increase is monitored using a f-max (Molecular Devices) fluorescent plate reader (ex: 335 nm; em: 485 nm). The rates of cleavage of the substrate by gelatinase-A in the presence or absence of inhibitors are measured in a 40 min assay at ambient temperature. Stock solutions of the compounds in DMSO are prepared, and these solutions are diluted into the assay buffer (50 mM Tris HCl, pH 7.4, with 150 mM NaCl and 10 mM CaCl2), which is also used for dilution of the enzyme and substrate.

In order of rising IC50:
1. O=CN(O)CC1(CS(=O)(=O)c2ccc(Oc3ccc(OC(F)(F)F)cc3)cc2)COCOC1 [Example 135, Hydroxy((5-(((4-(4-(trifluoromethoxy)phenoxy)phenyl)sulfonyl)methyl)-1,3-dioxan-5-yl)methyl)formamide]  0.6 nM
2. CC(C)(CN(O)C=O)CS(=O)(=O)c1ccc(Oc2ccccc2)cc1 [Example 129, 2,2-dimethyl-3-((4-phenoxyphenyl)sulfonyl)propyl(hydroxy)formamide]  4.3 nM
3. CC(C)(CN(O)C=O)CS(=O)(=O)c1ccc(Oc2ccc(OC(F)(F)F)cc2)cc1 [Example 131, 2,2-dimethyl-3-((4-(4-(trifluoromethoxy)phenoxy)phenyl)sulfonyl)propyl(hydroxy)formamide]  4.9 nM
4. CC1(C)NC(=O)N(C[C@@H](CCS(=O)(=O)c2ccc(Oc3ccc(Cl)cc3)cc2)N(O)C=O)C1=O [Example 130]  12 nM
5. CN1C(=O)N(C[C@@H](CCS(=O)(=O)c2ccc(Oc3ccc(F)cc3)cc2)N(O)C=O)C(=O)C1(C)C [Example 132, (1R)-3-((4-(4-fluorophenoxy)phenyl)sulfonyl)-1-((3,4,4-trimethyl-2,5-dioxo-1-imidazolidinyl)methyl)propyl(hydroxy)formamide]  15 nM
6. O=CN(O)C1CCCCC1CS(=O)(=O)c1ccc(Oc2ccc(F)cc2)cc1 (racemic) [Example 134, (±)-2-(((4-(4-fluorophenoxy)phenyl)sulfonyl)methyl)cyclohexyl(hydroxy)formamide]  120 nM

Target: T2, stromelysin (Homo sapiens, UniProt P08254)
T2 construct: made in house; host or cells: E. coli
Test: Determination of Stromelysin Inhibition (cleavage of thiopeptide ester substrate, DTNB, 405 nm)
Assay type: biochemical
Conditions: Table 1; recombinant truncated human stromelysin, pH 6.5, 30 minute assay at ambient temperature
Method: The efficacy of the compounds of this invention as matrix metalloproteinase inhibitors was determined by measuring the inhibition of stromelysin. The inhibition of stromelysin by the compounds of this invention was determined as follows: Recombinant truncated stromelysin (human sequence) produced in E. coli was prepared by expression and purification of the protein as described by Ye et al. (Biochemistry, 1992, 31, 11231-11235, which is incorporated herein by reference). The enzyme was assayed by its cleavage of the thiopeptide ester substrate Ac-Pro-Leu-Gly-(2-mercapto-4-methyl-pentanoyl)-Leu-Gly-OEt as described by Weingarten and Feder (Anal. Biochem., 1985, 147, 437-440 (1985), which is incorporated herein by reference) as a substrate of vertebrate collagenase. The reported conditions were modified to allow assays to be carried out in a microtiter plate. Upon hydrolysis of the thioester bond, the released thiol group reacted rapidly with 5,5'-dithio-bis(2-nitrobenzoic acid) (DTNB) to produce a yellow color which was measured by a microtiter plate reader set at 405 nm. The rates of cleavage of the substrate by stromelysin in the presence or absence of inhibitors were measured in a 30 minute assay at ambient temperature. Solutions of the compounds in DMSO were prepared, and these were diluted at various concentrations into the assay buffer (50 mM MES/NaOH pH 6.5 with 10 mM CaCl2 and 0.2% Pluronic F-68), which was also used for dilution of the enzyme and substrate. The potency of the compounds (IC50) was calculated from the inhibition/inhibitor concentration data.

T2 sequence (P08254 100-272 limits assumed): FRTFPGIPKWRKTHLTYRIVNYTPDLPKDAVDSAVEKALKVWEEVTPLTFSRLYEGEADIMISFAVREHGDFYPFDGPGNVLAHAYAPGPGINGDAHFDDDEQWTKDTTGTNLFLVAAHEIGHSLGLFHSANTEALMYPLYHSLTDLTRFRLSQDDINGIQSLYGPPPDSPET

In order of falling IC50:
1. CC1(C)NC(=O)N(C[C@@H](CCS(=O)(=O)c2ccc(Oc3ccccc3)cc2)N(O)C=O)C1=O [Example 123, (R)-N-(1-((4,4-dimethyl-2,5-dioxo-1-imidazolidinyl)methyl)-3-((4-phenoxyphenyl)sulfonyl)propyl)-N-hydroxyformamide]  270 nM
2. CC(CCS(=O)(=O)c1ccc(Oc2ccc(OC(F)(F)F)cc2)cc1)N(O)C=O (racemic) [Example 121, (±)-N-hydroxy-N-(1-methyl-3-((4-(4-(trifluoromethoxy)phenoxy)phenyl)-sulfonyl)propyl)formamide]  130 nM
3. CC(CCS(=O)(=O)c1ccc(Oc2ccccc2)cc1)N(O)C=O (racemic) [Example 120, (±)-N-hydroxy-N-(1-methyl-3-((4-phenoxyphenyl)sulfonyl)propyl)formamide]  4.3 nM
